One experiment concerns the target Human mTOR (FLAG-TOR) (Homo sapiens, UniProt P42345). Description: mTOR kinase assay (DELFIA format, purified enzyme). It counts as biochemical. Particulars: read-out: IC50 mTOR.
For another experiment, the target named is PI3K-α (Homo sapiens, UniProt P42336). Nature of the experiment: PI3K-alpha fluorescence polarization assay. Particulars: read-out: IC50 PI3Kα.
In experiment [1] the test system is human prostate LNCap tumor cell line. Description: In vitro cell culture growth assay (MTS), LNCap. The following applies: Homo sapiens, LNCaP, 72 h, read-out: IC50 LNCap.
Another experiment addresses PI3K-γ (Homo sapiens, UniProt P48736). Nature of the experiment: PI3K-gamma fluorescence polarization assay. The following applies: read-out: IC50 PI3Kγ.

pIC50: −log10 of the molar value. Like-named read-outs stand apart in the source and are kept apart here. A value given as a limit tells only on which side of the number the result lay.

Chain of PI3K-α (P42336 whole entry, species assumed): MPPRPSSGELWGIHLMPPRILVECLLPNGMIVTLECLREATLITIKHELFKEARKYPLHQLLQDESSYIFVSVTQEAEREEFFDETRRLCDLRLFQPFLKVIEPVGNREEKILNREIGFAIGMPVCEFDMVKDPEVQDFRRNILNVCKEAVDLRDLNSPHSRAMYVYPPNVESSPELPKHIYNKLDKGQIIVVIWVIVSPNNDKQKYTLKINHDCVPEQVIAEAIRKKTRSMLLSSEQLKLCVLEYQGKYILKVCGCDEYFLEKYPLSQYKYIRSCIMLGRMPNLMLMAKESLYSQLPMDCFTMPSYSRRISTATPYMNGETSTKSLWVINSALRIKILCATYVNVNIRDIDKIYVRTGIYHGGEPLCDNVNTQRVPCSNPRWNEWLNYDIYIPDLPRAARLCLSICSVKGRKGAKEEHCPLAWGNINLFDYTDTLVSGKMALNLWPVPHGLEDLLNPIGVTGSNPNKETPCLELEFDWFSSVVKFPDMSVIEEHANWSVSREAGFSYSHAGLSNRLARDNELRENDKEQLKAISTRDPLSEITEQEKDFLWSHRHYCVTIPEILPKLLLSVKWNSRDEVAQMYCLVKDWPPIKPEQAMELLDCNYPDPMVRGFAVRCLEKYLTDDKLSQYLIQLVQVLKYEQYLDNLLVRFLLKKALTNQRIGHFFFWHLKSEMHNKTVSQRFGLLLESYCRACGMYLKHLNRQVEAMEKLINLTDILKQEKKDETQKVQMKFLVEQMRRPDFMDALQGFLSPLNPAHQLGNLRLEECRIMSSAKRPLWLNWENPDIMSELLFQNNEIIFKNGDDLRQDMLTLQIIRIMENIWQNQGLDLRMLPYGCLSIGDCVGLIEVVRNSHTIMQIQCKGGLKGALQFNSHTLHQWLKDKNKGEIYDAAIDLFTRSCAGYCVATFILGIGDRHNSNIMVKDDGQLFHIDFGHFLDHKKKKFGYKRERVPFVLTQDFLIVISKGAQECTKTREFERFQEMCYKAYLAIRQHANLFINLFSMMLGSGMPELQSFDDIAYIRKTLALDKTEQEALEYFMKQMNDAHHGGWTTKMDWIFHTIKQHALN
Chain of PI3K-α (P27986 whole entry partner, species assumed): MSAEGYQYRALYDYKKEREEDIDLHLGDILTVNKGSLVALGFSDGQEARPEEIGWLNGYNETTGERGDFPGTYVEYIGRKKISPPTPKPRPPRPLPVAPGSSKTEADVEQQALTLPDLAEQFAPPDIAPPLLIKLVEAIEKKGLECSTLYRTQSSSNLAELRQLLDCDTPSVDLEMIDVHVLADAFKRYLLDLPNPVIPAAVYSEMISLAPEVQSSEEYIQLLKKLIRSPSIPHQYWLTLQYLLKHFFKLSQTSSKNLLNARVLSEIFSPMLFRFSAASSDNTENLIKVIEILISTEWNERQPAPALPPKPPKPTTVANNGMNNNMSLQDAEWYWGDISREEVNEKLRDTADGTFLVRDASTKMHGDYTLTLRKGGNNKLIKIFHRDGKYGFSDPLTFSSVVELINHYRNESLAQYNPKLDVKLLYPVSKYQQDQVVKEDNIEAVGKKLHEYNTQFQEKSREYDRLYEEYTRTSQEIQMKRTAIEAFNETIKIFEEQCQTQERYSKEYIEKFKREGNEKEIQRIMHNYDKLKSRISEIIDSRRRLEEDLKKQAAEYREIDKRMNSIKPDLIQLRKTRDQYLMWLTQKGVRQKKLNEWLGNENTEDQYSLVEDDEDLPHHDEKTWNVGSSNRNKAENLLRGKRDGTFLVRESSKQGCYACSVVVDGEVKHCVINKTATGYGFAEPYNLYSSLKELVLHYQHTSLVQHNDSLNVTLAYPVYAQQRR
Chain of Human mTOR (FLAG-TOR) (P42345 1360-2549 limits assumed): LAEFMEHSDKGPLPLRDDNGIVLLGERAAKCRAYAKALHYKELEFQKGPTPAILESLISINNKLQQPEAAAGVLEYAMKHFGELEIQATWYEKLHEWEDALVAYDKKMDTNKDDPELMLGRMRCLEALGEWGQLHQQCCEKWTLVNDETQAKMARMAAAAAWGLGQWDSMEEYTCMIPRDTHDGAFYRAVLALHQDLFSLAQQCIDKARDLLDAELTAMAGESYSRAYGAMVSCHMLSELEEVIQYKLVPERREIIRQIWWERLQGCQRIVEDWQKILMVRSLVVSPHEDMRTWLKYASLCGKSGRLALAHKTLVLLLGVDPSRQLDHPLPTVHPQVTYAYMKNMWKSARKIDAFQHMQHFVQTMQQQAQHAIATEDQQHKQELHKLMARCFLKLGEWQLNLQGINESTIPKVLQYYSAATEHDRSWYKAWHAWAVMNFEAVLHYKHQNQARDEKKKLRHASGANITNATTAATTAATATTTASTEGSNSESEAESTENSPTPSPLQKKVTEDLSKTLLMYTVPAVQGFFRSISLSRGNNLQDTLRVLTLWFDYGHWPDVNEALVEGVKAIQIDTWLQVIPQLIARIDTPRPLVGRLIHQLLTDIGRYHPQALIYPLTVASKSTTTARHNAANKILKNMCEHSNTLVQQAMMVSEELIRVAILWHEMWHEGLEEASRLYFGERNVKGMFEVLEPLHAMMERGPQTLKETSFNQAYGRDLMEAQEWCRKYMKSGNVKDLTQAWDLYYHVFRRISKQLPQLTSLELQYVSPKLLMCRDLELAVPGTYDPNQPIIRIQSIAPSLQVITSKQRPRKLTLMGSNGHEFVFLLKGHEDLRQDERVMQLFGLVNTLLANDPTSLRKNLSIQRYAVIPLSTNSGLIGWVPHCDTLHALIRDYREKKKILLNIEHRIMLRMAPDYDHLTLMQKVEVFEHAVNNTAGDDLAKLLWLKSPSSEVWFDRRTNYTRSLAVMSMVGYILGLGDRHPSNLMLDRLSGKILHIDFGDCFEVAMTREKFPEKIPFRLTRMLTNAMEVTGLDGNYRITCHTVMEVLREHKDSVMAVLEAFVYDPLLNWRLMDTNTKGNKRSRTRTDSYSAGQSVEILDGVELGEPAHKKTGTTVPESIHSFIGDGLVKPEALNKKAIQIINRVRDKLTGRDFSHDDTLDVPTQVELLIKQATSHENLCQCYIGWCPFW
Chain of PI3K-γ (P48736 whole entry, species assumed): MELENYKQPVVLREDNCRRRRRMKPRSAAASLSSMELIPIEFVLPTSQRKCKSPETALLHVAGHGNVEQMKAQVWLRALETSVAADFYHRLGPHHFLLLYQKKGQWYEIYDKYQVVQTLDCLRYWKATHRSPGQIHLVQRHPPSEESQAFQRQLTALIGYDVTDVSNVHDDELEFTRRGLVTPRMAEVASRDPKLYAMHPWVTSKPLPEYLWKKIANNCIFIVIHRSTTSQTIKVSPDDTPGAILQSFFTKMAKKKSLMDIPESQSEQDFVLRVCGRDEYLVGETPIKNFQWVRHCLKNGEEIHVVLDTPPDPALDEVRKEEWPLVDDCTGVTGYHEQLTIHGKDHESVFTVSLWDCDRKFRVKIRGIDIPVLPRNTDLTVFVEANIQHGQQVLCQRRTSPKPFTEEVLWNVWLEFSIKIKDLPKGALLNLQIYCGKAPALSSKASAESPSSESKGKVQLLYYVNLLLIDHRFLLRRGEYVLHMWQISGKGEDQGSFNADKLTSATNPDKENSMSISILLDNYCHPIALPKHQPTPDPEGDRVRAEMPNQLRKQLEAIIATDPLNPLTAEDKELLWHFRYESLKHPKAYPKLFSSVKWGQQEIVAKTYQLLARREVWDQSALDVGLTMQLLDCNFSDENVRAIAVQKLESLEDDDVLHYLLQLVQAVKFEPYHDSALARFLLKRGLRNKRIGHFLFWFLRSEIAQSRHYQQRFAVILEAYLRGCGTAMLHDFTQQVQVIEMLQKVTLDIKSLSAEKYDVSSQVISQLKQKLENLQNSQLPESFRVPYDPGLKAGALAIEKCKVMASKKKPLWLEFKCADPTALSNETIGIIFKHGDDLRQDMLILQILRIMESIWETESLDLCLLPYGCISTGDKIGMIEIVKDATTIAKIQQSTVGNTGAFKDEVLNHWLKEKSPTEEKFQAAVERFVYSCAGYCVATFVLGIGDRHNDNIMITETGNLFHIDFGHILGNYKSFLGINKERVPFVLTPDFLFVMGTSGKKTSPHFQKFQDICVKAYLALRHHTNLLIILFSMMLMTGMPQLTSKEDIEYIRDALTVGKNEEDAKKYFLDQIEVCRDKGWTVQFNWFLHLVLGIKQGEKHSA

On to `CC(C)Nc1nc(-c2ccc(NC(=O)Nc3ccncc3)cc2)nc(N2CC3CCC(C2)O3)n1` [Example 215, 1-(4-{4-[(1-methylethyl)amino]-6-(8-oxa-3-azabicyclo[3.2.1]oct-3-yl)-1,3,5-triazin-2-yl}phenyl)-3-pyridin-4-ylurea], for which the pIC50 at Human mTOR (FLAG-TOR) was 8.92; at PI3K-α, 6.73; in experiment [1], 7.52; at PI3K-γ, 5.50.

Regarding `CC(C)Nc1nc(-c2ccc(NC(=O)Nc3ccc(N4CCN(C)CC4)cc3)cc2)nc(N2CC3CCC(C2)O3)n1` [Example 217, 1-(4-{4-[(1-methylethyl)amino]-6-(8-oxa-3-azabicyclo[3.2.1]oct-3-yl)-1,3,5-triazin-2-yl}phenyl)-3-[4-(4-methylpiperazin-1-yl)phenyl]urea], the pIC50 was 8.49 on Human mTOR (FLAG-TOR), 6.60 on PI3K-α, 7.89 in experiment [1] and 5.49 on PI3K-γ.

On to `CC(C)Nc1nc(-c2ccc(NC(=O)Nc3ccc(C(=O)NN(C)C)cc3)cc2)nc(N2CC3CCC(C2)O3)n1` [Example 218, 1-{4-[(2,2-dimethylhydrazino)carbonyl]phenyl}-3-(4-{4-[(1-methylethyl)amino]-6-(8-oxa-3-azabicyclo[3.2.1]oct-3-yl)-1,3,5-triazin-2-yl}phenyl)urea], for which the negative-log IC50 (pIC50) is 8.59 on Human mTOR (FLAG-TOR), 6.55 on PI3K-α, 7.92 in experiment [1] and 5.56 on PI3K-γ.

`CC(C)Nc1nc(-c2ccc(NC(=O)Nc3ccc(C(=O)NN4CCCC4)cc3)cc2)nc(N2CC3CCC(C2)O3)n1` [Example 219, 4-{[(4-{4-[(1-methylethyl)amino]-6-(8-oxa-3-azabicyclo[3.2.1]oct-3-yl)-1,3,5-triazin-2-yl}phenyl)carbamoyl]amino}-N-pyrrolidin-1-ylbenzamide]: the pIC50 on Human mTOR (FLAG-TOR) was 8.23; at PI3K-α it was 6.25; in experiment [1] it was 7.40; on PI3K-γ, 5.08.

On to `CC(C)Nc1nc(-c2ccc(NC(=O)Nc3ccc(OCCN(C)C)cc3)cc2)nc(N2CC3CCC(C2)O3)n1` [Example 220, 1-{4-[2-(dimethylamino)ethoxy]phenyl}-3-(4-{4-[(1-methylethyl)amino]-6-(8-oxa-3-azabicyclo[3.2.1]oct-3-yl)-1,3,5-triazin-2-yl}phenyl)urea], for which the pIC50 was 8.46 at Human mTOR (FLAG-TOR), 6.56 at PI3K-α, 7.40 in experiment [1] and 5.55 at PI3K-γ.

Take `CC(C)Nc1nc(-c2ccc(NC(=O)Nc3ccc(CO)cc3)cc2)nc(N2CC3CCC(C2)O3)n1` [Example 221, 1-[4-(hydroxymethyl)phenyl]-3-(4-{4-[(1-methylethyl)amino]-6-(8-oxa-3-azabicyclo[3.2.1]oct-3-yl)-1,3,5-triazin-2-yl}phenyl)urea]: the pIC50 is 8.57 at Human mTOR (FLAG-TOR), 6.67 at PI3K-α, 6.92 in experiment [1] and 5.37 at PI3K-γ.

For the compound `CC(C)Nc1nc(-c2ccc(NC(=O)Nc3ccc(CCO)cc3)cc2)nc(N2CC3CCC(C2)O3)n1` [Example 222, 1-[4-(2-hydroxyethyl)phenyl]-3-(4-{4-[(1-methylethyl)amino]-6-(8-oxa-3-azabicyclo[3.2.1]oct-3-yl)-1,3,5-triazin-2-yl}phenyl)urea], the pIC50 on Human mTOR (FLAG-TOR) was 9.30; on PI3K-α, 6.82; in experiment [1] it was 8.00; at PI3K-γ, 6.24.

As for `O=C(Nc1ccncc1)Nc1ccc(-c2nc(N3C4CCC3COC4)nc(N3C4CCC3COC4)n2)cc1` [Example 224, 1-[4-(4,6-di-3-oxa-8-azabicyclo[3.2.1]oct-8-yl-1,3,5-triazin-2-yl)phenyl]-3-pyridin-4-ylurea], the pIC50 on Human mTOR (FLAG-TOR) was 9.40; at PI3K-α it was 6.35; in experiment [1], over 9.10; at PI3K-γ, 5.23; on PI3K-γ (listed as 717), 5.23.

The pIC50 is the negative decadic logarithm of the IC50, by convention in mol/L.
